Test results reported in publication PMC6273820, “Antimicrobial Activity and Stability of Short and Long Based Arachnid Synthetic Peptides in the Presence of Commercial Antibiotics” (Molecules, 2016).
Where no end group is shown, it is not given here.

Key:
[1] = Stability in supernatant of P. aeruginosa growth; format: in vitro ADME, Pseudomonas aeruginosa; details: 50 μg/mL, 12 h at 37 °C, extraction, reverse phase HPLC at 230 nm
Procedure: (§1) The four synthetic peptides were subjected to incubation in human blood plasma or in the supernatant of S. aureus and P. aeruginosa growth. The AMPs were diluted in human blood plasma or in the supernatant of bacterial growth (50 μg/mL) and incubated at 37 °C for 12 h. After peptide extraction, the AMPs were separated by reverse phase HPLC using a C18 column (Vydac 218 TP54, Grace Co.) and a linear gradient of acetonitrile in 0.1% aqueous TFA from 0 to 60% in 60 min at a flow rate of 1 mL/min. Effluent absorbance was monitored at 230 nm. Peptide fractions were dried under vacuum, resuspended and analyzed by ESI-MS to confirm their molecular masses.

[2] = Stability in saline buffer (PBS); format: physicochemical; details: 20 μg peptide in PBS pH 7.4, 37 °C, 7 days; height of peptide peak in reverse phase HPLC
Procedure: The stability of the four synthetic peptides (20 μg) was measured in phosphate buffered saline (PBS) that consisted of NaCl (137 mM), KCl (2.7 mM), Na2HPO4 (10 mM) and KH2PO4 (2 mM) at 37 °C for 7 days (pH 7.4). The stability of peptides in PBS was monitored measuring the height of the peptide peak when separated using reverse phase HPLC under the separation conditions mentioned above.

[3] = tested on: Pseudomonas aeruginosa ATCC 27853; experiment: microbe, parasite or virus in culture; format: cell-based; details: broth microdilution (CLSI), Mueller-Hinton broth, 18 h at 37 °C, A625nm; peptides n = 8
Procedure: (§2) It was determined using the broth microdilution assay in accordance with the procedures from the Clinical and Laboratory Standards Institute. For broth microdilution assays, pathogenic bacteria, such as Escherichia coli ATCC 25922, Staphylococcus aureus ATCC 25923, Pseudomonas aeruginosa ATCC 27853 and Klebsiella pneumoniae ST258, were cultured in Mueller-Hinton broth (MHB) at 37 °C until an end point between of 0.08 and 0.13 units of absorbance at 625 nm and diluted 1:100 in MHB (ca. […]). Fifty microliters of this bacterial suspension was dispensed into each well of a 96-well microtiter Costar® culture plates (Sigma Aldrich) having 50 µL of MHB containing a proper concentration of pure AMPs, antibiotics or the mixture of either of the AMPs with either of the antibiotics used. Dilutions of peptides and antibiotics were made manually with two-fold dilutions.
(§3) E. coli, S. aureus, P. aeruginosa and K. pneumoniae were grown in the presence of each of the four AMPs, and in the presence of each of the eight commercial antibiotics, which were Levofloxacin, Trimethoprim, Sulfamethoxazole, Azithromycin, Amoxicillin, Ceftriaxone, Gentamicin and Vancomycin, and in combinations of AMPs and the antibiotics. That is, the antimicrobial capacity of each AMP (50, 25, 12.5 and 6.2 µg/ mL) in combination with each antibiotic agent (50, 25, 12.5, 3.2, 1.6 and 0 µg/ mL) was measured as described above. For evaluation of the effect of the mixtures, the fractional inhibitory concentration (FIC) was calculated for each antibiotic in each combination. The following formulas were used to calculate the FIC index: FIC of AMP = MIC of AMP in combination with Antibiotic/MIC of AMP alone; FIC of Antibiotic = MIC of Antibiotic in combination with AMP/MIC of Antibiotic alone, and FIC index = FIC of AMP + FIC of Antibiotic. Synergy was defined as an FIC index of <0.5. Additive was defined as an FIC index of >0.5 but of <4, and finally antagonism was defined as an FIC index of >4.

[4] = tested on: Staphylococcus aureus ATCC 25923; experiment: microbe, parasite or virus in culture; format: cell-based; details: broth microdilution (CLSI), Mueller-Hinton broth, 18 h at 37 °C, A625nm; peptides n = 8
Procedure: as §2, §3

[5] = Stability in human blood plasma; format: in vitro ADME; details: 50 μg/mL
Procedure: as §1

[6] = tested on: Klebsiella pneumoniae ST258; experiment: microbe, parasite or virus in culture; format: cell-based
Procedure: as §2
as §3, with “That” for “E. coli, S. aureus, P. aeruginosa and K. pneumoniae were grown in the presence of each of the four AMPs, and in the presence of each of the eight commercial antibiotics, which were Levofloxacin, Trimethoprim, Sulfamethoxazole, Azithromycin, Amoxicillin, Ceftriaxone, Gentamicin and Vancomycin, and in combinations of AMPs and the antibiotics. That”

[7] = cited from earlier work
Excerpt: Concerning AMPs, several physicochemical characteristics have been associated with the biological activity of them. Those that are relevant include hydrophobicity, the helical hydrophobic moment, as well as the size and the net charge of the peptide. However, no particular value relating to any of these characteristics was solely sufficient to correlate with the antimicrobial activity of the AMPs tested. In this case, however, the larger peptides FA1 and Pin2[G] were the AMPs that manifested optimum biological performance. Nevertheless, a fine balance in terms of physicochemical pr ...

[8] = tested on: Escherichia coli ATCC 25922; experiment: microbe, parasite or virus in culture; format: cell-based; details: broth microdilution (CLSI), Mueller-Hinton broth, 18 h at 37 °C, A625nm; peptides n = 8
Procedure: as §2, with “dilutions. […]” for “dilutions.”

[9] = Stability in supernatant of S. aureus growth; format: in vitro ADME, Staphylococcus aureus; details: 50 μg/mL, 12 h at 37 °C, extraction, reverse phase HPLC at 230 nm
Procedure: as §1

GILKTIKSIASKVANTVQKLKRKAKNAV [FA1]
Stability in supernatants of P. aeruginosa [1]: not found
Stability in saline buffer [2]: less stable
Minimal Inhibitory Concentration, P. aureginosa [3]: 25 µg/mL
Minimal Inhibitory Concentration, S. aureus [4]: >50 µg/mL
Peptide found after incubation in human blood plasma ([5]; 12 h at 37 °C, extraction, reverse phase HPLC at 230 nm, ESI-MS): not found
Recovery after interaction with human plasma, first few minutes of dilution ([5]; extracted after the first few minutes of dilution, reverse phase HPLC): none
Minimal Inhibitory Concentration, K. pneumoniae ([6]; broth microdilution (CLSI), Mueller-Hinton broth, 18 h at 37 °C, A625nm, peptides n = 8): >50 µg/mL
Peptide (MIC) ([6]; peptide alone against K. pneumoniae, based on Figure 2): >50 µg/mL
hemolytic activity [7]: 665 µM
Minimal Inhibitory Concentration, E. coli [8]: 12.5 µg/mL
Stability in supernatants of S. aureus [9]: only a small amount
